Assay results: patent publication US7968607B2, “Skin pore minimizers and skin elasticity improvers” (Koa Corporation, priority 2000, dated 2011)
Structures can show the parent of a compound that is named as a salt.

Legend:
[1] = tested on: human skin fibroblasts (derived from a human fore skin); experiment: Collagen gel tightening promoting ability (fibroblast-embedded collagen gel, dermis model); assay type: cell-based; conditions: Homo sapiens, Skin fibroblast, 48 hours, relative volume, control = 100%
Experimental: Measurement was conducted on the ability to promote the tightening of a fibroblast-embedded collagen gel as a dermis model. The collagen gel was prepared following the procedure reported in a publication [J. Cell Science, 102, 315 (1992) or J. Invest. Dermatol., 93, 792 (1989)]. Described specifically, a solution of HEPES (250 mM) in a 0.05 N sodium hydroxide solution, a 5-fold concentrate of DMEM (“GIBCO DMEM”, low glucose), FCS (2%, Fetal Calf Serum) and purified water were added under ice cooling to a collagen gel solution (product of Nitta Gelatin Inc., “type 1-A” (3.0 mg/mL, pH=3)), and finally, a suspension of human skin fibroblasts (derived from a human fore skin) was added. After the resulting mixture was thoroughly stirred to eliminate bubbles, 600 μL per well was added to 24-well dishes, followed by immediate warming at 37° C. in an incubator to effect gelation. Three to four hours later, 1 mL of serum-free DMEM medium was added to each of the wells, and the gels were separated at peripheries thereof from the corresponding dishes and were brought into a floating state. Eighteen hours after that, the medium was replaced with serum-free DMEM media which contained 100 to 10 μM of test substances, respectively, and incubation was conducted further for 48 hours.
Volume measurement of the gels was conducted by a weight measuring method similar to that reported in the publication [J. Cell Science, 102, 315 (1992)]. Described specifically, subsequent to immobilization with 10% formalin (4° C., 24 hours), the surface tension of water was reduced by the addition of Triton X100 (product of Wako Pure Chemical Industries) (1%), and the weights were measured.
Measurement results of relative volumes for the respective compounds as calculated supposing that the volume of the control was 100% are presented in Table 3.

[2] = tested on: dorsal skin of HR rats (WBN/ILA-HT); experiment: Rat skin elasticity improving (tightening) effect, cutometer; assay type: in vivo; conditions: 2% solution in 10% ethanol sprayed on dorsal skin, 0.7 mL, 7 to 8 times a week, two weeks
[3] = tested on: dorsal skin of HR rats (WBN/ILA-HT); experiment: as above; assay type: in vivo; conditions: for Ur/Uf / Ue (instantaneous elastic displacement) / Uf (final displacement) / Ur (instantaneous recovery displacement): 2% solution in 10% ethanol, two weeks; for Ur/Uf: cutometer; for Ue (instantaneous elastic displacement) / Uf (final displacement) / Ur (instantaneous recovery displacement): cutometer 100 hpa, 5 s suction, 2 s release; for skin elasticity / skin tightening effect: when applied, from Table 4 and Table 5
Experimental: Onto the entire dorsal skins of HR rats (WBN/ILA-HT, 7 weeks old), 2% solutions of Compounds 1 and 4 (solvent: 10% ethanol) were applied in the form of spray, respectively, once or twice a day, 7 to 8 times a week in total, in an amount of 0.7 mL each time. As a control, 10% ethanol solution was used. Two weeks later, the skin elasticity of the skin at a central dorsal part at a site slightly rightward of the median line of each HR rat was measured under Nembutal anesthesia by using a cutometer (“CUTOMETER SEM474”, Courage+Khazaka Electronic GmbH). The measurement was conducted by setting the suction pressure, suction time and release time at 100 hpa, 5 seconds and 2 seconds, and an instantaneous elastic displacement Ue, an instantaneous recovery displacement Ur and a final displacement Uf were recorded. Based on changes in the skin elasticity, skin tightening effect was determined. Ue is an index of elasticity, while Uf is an index of softness and malleability. Both of these values decrease on the face or the like upon aging, and also decrease when the skin is in a swollen state. Increases in these values, therefore, can be taken as an indication of a state that the skin is in a tightened state with its softness, melleability and elasticity having been increased further. Ur is also an index of elasticity, and decreases when the skin is in a saggy state or a swollen state. Similarly, an increase in this value serves as an indication of a state that the skin is in a tightened state with its elasticity and tightness having been increased further. Further, Ur/Uf is also an index of the elasticity of the skin, and like Ur, decreases when the skin becomes saggy or is swollen. Moreover, Ur/Uf is known to decrease upon aging irrespective of the face or body site, and is an important index of sagginess.

[4] = tested on: human skin fibroblasts (derived from a human fore skin); experiment: Collagen gel tightening promoting ability (fibroblast-embedded collagen gel, dermis model); assay type: cell-based; conditions: 48 hours, relative volume, control = 100%

| SMILES | activity at 10 µM [1] | activity at 30 µM [1] | Skin thickness (mm) [2] | Ur/Uf [3] | Ue (instantaneous elastic displacement) [3] | Uf (final displacement) [3] | Ur (instantaneous recovery displacement) [3] | skin elasticity / skin tightening effect [3] | activity at 3 µM [4] | activity at 15 µM ([1]; 15 μM, read-out: Average gel volume) | activity at 50 µM ([1]; 50 μM, read-out: Average gel volume) |
| --- | --- | --- | --- | --- | --- | --- | --- | --- | --- | --- | --- |
| CCCCCCCCCCCCOCC(O)COS(=O)(=O)[O-].[Na+] (stereo not shown) [Compound 1, 1-dodecylglycerol-3-sulfate sodium salt] | 93% | 85% | 0.820 mm | 0.540 | 0.113 | 0.159 | 0.834 | increased the skin elasticity and exhibited skin tightening effect | – | – | – |
| CC(C)CCCCCCCCCCCCCCCOCC(O)COS(=O)(=O)O (stereo not shown) [Compound 3, 1-isostearylglycerol-3-sulfate sodium salt] | 74% | 95% | – | – | – | – | – | – | 86% | – | – |
| CCCCCCCCCCOCC(O)COP(=O)([O-])[O-].[Na+].[Na+] (stereo not shown) [Compound 4, 1-decylglycerol-3-phosphate disodium salt] | – | – | 0.725 mm | 0.401 | 0.225 | 0.275 | 0.109 | increased the skin elasticity and exhibited skin tightening effect | – | 96% | 88% |
